Experimental data from patent US10538554B2, “Peptides and uses therefor as antiviral agents” (priority 2015, dated 2020).
Bridge positions count the residues as written; N and C are the ends. Square brackets hold non-standard residues; d marks the D form. Peptide text beside a SMILES is read from it.

The compounds below were run on H3N8 A/Miami/2/63. Details: A/Miami/2/63, 48 h, 500 μM.

Row | Structure (SMILES) | % inhibition H3N8
1 | CC[C@@H](C)[C@H]1NC(=O)[C@@H](Cc2ccccc2)NC(=O)[C@@H](CCCNC(=N)N)NC(=O)[C@@H](CO)NC(=O)[C@@H](CC(N)=O)NC(=O)[C@@H]([C@H](C)O)NC(=O)[C@H](NC(=O)[C@@H](CCCCN)NC(=O)[C@@H](CCCCN)NC(=O)[C@@H](CCCNC(=N)N)NC(=O)[C@H](N)CCCNC(=N)N)CSSC[C@H](C(=O)O)NC(=O)[C@@H](CC(N)=O)NC1=O [PSP II A12, H-rrkkctnsrfinc-OH] (H-[dR][dR][dK][dK][dC][dT][dN][dS][dR][dF][dI][dN][dC]-OH; disulfide 5-13) | 70.6%
2 | CSCC[C@H]1NC(=O)[C@@H](Cc2ccccc2)NC(=O)[C@@H](CCCNC(=N)N)NC(=O)[C@@H](CO)NC(=O)[C@@H](CCCCN)NC(=O)[C@@H]([C@H](C)O)NC(=O)[C@H](N)CSSC[C@H](C(=O)O)NC(=O)[C@@H](CC(N)=O)NC1=O [PSP 11, H-ctksrfmnc-OH] (H-[dC][dT][dK][dS][dR][dF][dM][dN][dC]-OH; disulfide 1-9) | 67%
3 | CC[C@@H](C)[C@H]1NC(=O)[C@@H](Cc2ccccc2)NC(=O)[C@@H](CCCNC(=N)N)NC(=O)[C@@H](CO)NC(=O)[C@@H](CS)NC(=O)[C@@H]([C@H](C)O)NC(=O)[C@H](NC(=O)[C@@H](CCCCN)NC(=O)[C@@H](CCCCN)NC(=O)[C@@H](CCCNC(=N)N)NC(=O)[C@H](N)CCCNC(=N)N)CSSC[C@H](C(=O)O)NC(=O)[C@@H](CC(N)=O)NC1=O [PSP II A2, H-rrkkctcsrfinc-OH] (H-[dR][dR][dK][dK][dC][dT][dC][dS][dR][dF][dI][dN][dC]-OH; disulfide 5-13) | 44.4%

The compounds below were run on H1N1 A1/Malaysia/302/1954. Details: A1/Malaysia/302/1954, 48 h, 1 μM.

Row | Structure (SMILES) | % Inhibition
4 | CC[C@@H](C)[C@H]1NC(=O)[C@@H](C)NC(=O)[C@@H]([C@H](C)O)NC(=O)[C@@H](Cc2ccccc2)NC(=O)[C@@H](Cc2c[nH]c3ccccc23)NC(=O)[C@@H](Cc2c[nH]c3ccccc23)NC(=O)[C@H](NC(=O)[C@H](CCCCN)NC(=O)[C@H](CCCCN)NC(=O)[C@H](CCCNC(=N)N)NC(=O)[C@@H](N)CCCNC(=N)N)CSSC[C@H](C(=O)O)NC(=O)[C@@H](C)NC1=O [PSP VII A1, H-RRKKcwwftaiac-OH] (H-RRKK[dC][dW][dW][dF][dT][dA][dI][dA][dC]-OH; disulfide 5-13) | 25.2%
5 | CC[C@@H](C)[C@H]1NC(=O)[C@@H](CCCNC(=N)N)NC(=O)[C@@H]([C@H](C)O)NC(=O)[C@@H](Cc2ccccc2)NC(=O)[C@@H](Cc2c[nH]c3ccccc23)NC(=O)[C@@H](Cc2c[nH]c3ccccc23)NC(=O)[C@H](NC(=O)[C@H](CCCCN)NC(=O)[C@H](CCCCN)NC(=O)[C@H](CCCNC(=N)N)NC(=O)[C@@H](N)CCCNC(=N)N)CSSC[C@H](C(=O)O)NC(=O)[C@@H](C)NC1=O [PSP VII A15, H-RRKKcwwftriac-OH] (H-RRKK[dC][dW][dW][dF][dT][dR][dI][dA][dC]-OH; disulfide 5-13) | 39.1%
6 | CC[C@@H](C)[C@H]1NC(=O)[C@@H](CCC(=O)O)NC(=O)[C@@H]([C@H](C)O)NC(=O)[C@@H](Cc2ccccc2)NC(=O)[C@@H](Cc2c[nH]c3ccccc23)NC(=O)[C@@H](Cc2c[nH]c3ccccc23)NC(=O)[C@H](NC(=O)[C@H](CCCCN)NC(=O)[C@H](CCCCN)NC(=O)[C@H](CCCNC(=N)N)NC(=O)[C@@H](N)CCCNC(=N)N)CSSC[C@H](C(=O)O)NC(=O)[C@@H](C)NC1=O [PSP VII A4, H-RRKKcwwfteiac-OH] (H-RRKK[dC][dW][dW][dF][dT][dE][dI][dA][dC]-OH; disulfide 5-13) | 3.8%
7 | CC[C@@H](C)[C@H]1NC(=O)[C@@H](Cc2c[nH]cn2)NC(=O)[C@@H]([C@H](C)O)NC(=O)[C@@H](Cc2ccccc2)NC(=O)[C@@H](Cc2c[nH]c3ccccc23)NC(=O)[C@@H](Cc2c[nH]c3ccccc23)NC(=O)[C@H](NC(=O)[C@H](CCCCN)NC(=O)[C@H](CCCCN)NC(=O)[C@H](CCCNC(=N)N)NC(=O)[C@@H](N)CCCNC(=N)N)CSSC[C@H](C(=O)O)NC(=O)[C@@H](C)NC1=O [PSP VII A7, H-RRKKcwwfthiac-OH] (H-RRKK[dC][dW][dW][dF][dT][dH][dI][dA][dC]-OH; disulfide 5-13) | 47.1%
8 | CC[C@@H](C)[C@H]1NC(=O)[C@H]2CCCN2C(=O)[C@@H]([C@H](C)O)NC(=O)[C@@H](Cc2ccccc2)NC(=O)[C@@H](Cc2c[nH]c3ccccc23)NC(=O)[C@@H](Cc2c[nH]c3ccccc23)NC(=O)[C@H](NC(=O)[C@H](CCCCN)NC(=O)[C@H](CCCCN)NC(=O)[C@H](CCCNC(=N)N)NC(=O)[C@@H](N)CCCNC(=N)N)CSSC[C@H](C(=O)O)NC(=O)[C@@H](C)NC1=O [PSP VII A13, H-RRKKcwwftpiac-OH] (H-RRKK[dC][dW][dW][dF][dT][dP][dI][dA][dC]-OH; disulfide 5-13) | 41.9%
9 | CC[C@@H](C)[C@H]1NC(=O)CNC(=O)[C@@H]([C@H](C)O)NC(=O)[C@@H](Cc2ccccc2)NC(=O)[C@@H](Cc2c[nH]c3ccccc23)NC(=O)[C@@H](Cc2c[nH]c3ccccc23)NC(=O)[C@H](NC(=O)[C@H](CCCCN)NC(=O)[C@H](CCCCN)NC(=O)[C@H](CCCNC(=N)N)NC(=O)[C@@H](N)CCCNC(=N)N)CSSC[C@H](C(=O)O)NC(=O)[C@@H](C)NC1=O [PSP VII A5, H-RRKKcwwftGiac-OH] (H-RRKK[dC][dW][dW][dF][dT]G[dI][dA][dC]-OH; disulfide 5-13) | 9.5%
10 | CC[C@@H](C)[C@H]1NC(=O)[C@@H](CCC(N)=O)NC(=O)[C@@H]([C@H](C)O)NC(=O)[C@@H](Cc2ccccc2)NC(=O)[C@@H](Cc2c[nH]c3ccccc23)NC(=O)[C@@H](Cc2c[nH]c3ccccc23)NC(=O)[C@H](NC(=O)[C@H](CCCCN)NC(=O)[C@H](CCCCN)NC(=O)[C@H](CCCNC(=N)N)NC(=O)[C@@H](N)CCCNC(=N)N)CSSC[C@H](C(=O)O)NC(=O)[C@@H](C)NC1=O [PSP VII A14, H-RRKKcwwftqiac-OH] (H-RRKK[dC][dW][dW][dF][dT][dQ][dI][dA][dC]-OH; disulfide 5-13) | 21.9%
11 | CC[C@@H](C)[C@H]1NC(=O)[C@@H](CC(C)C)NC(=O)[C@@H]([C@H](C)O)NC(=O)[C@@H](Cc2ccccc2)NC(=O)[C@@H](Cc2c[nH]c3ccccc23)NC(=O)[C@@H](Cc2c[nH]c3ccccc23)NC(=O)[C@H](NC(=O)[C@H](CCCCN)NC(=O)[C@H](CCCCN)NC(=O)[C@H](CCCNC(=N)N)NC(=O)[C@@H](N)CCCNC(=N)N)CSSC[C@H](C(=O)O)NC(=O)[C@@H](C)NC1=O [PSP VII A10, H-RRKKcwwftliac-OH] (H-RRKK[dC][dW][dW][dF][dT][dL][dI][dA][dC]-OH; disulfide 5-13) | 35.7%
12 | CC[C@@H](C)[C@H]1NC(=O)[C@@H]([C@H](C)O)NC(=O)[C@@H](Cc2ccccc2)NC(=O)[C@@H](Cc2c[nH]c3ccccc23)NC(=O)[C@@H](Cc2c[nH]c3ccccc23)NC(=O)[C@H](NC(=O)[C@H](CCCCN)NC(=O)[C@H](CCCCN)NC(=O)[C@H](CCCNC(=N)N)NC(=O)[C@@H](N)CCCNC(=N)N)CSSC[C@H](C(=O)O)NC(=O)[C@@H](C)NC(=O)[C@@H]([C@H](C)CC)NC1=O [PSP VII A8, H-RRKKcwwftiiac-OH] (H-RRKK[dC][dW][dW][dF][dT][dI][dI][dA][dC]-OH; disulfide 5-13) | 84.8%
13 | CC[C@@H](C)[C@H]1NC(=O)[C@@H](CCSC)NC(=O)[C@@H]([C@H](C)O)NC(=O)[C@@H](Cc2ccccc2)NC(=O)[C@@H](Cc2c[nH]c3ccccc23)NC(=O)[C@@H](Cc2c[nH]c3ccccc23)NC(=O)[C@H](NC(=O)[C@H](CCCCN)NC(=O)[C@H](CCCCN)NC(=O)[C@H](CCCNC(=N)N)NC(=O)[C@@H](N)CCCNC(=N)N)CSSC[C@H](C(=O)O)NC(=O)[C@@H](C)NC1=O [PSP VII A11, H-RRKKcwwftmiac-OH] (H-RRKK[dC][dW][dW][dF][dT][dM][dI][dA][dC]-OH; disulfide 5-13) | 9.8%
14 | CC[C@@H](C)[C@H]1NC(=O)[C@@H](CC(N)=O)NC(=O)[C@@H]([C@H](C)O)NC(=O)[C@@H](Cc2ccccc2)NC(=O)[C@@H](Cc2c[nH]c3ccccc23)NC(=O)[C@@H](Cc2c[nH]c3ccccc23)NC(=O)[C@H](NC(=O)[C@H](CCCCN)NC(=O)[C@H](CCCCN)NC(=O)[C@H](CCCNC(=N)N)NC(=O)[C@@H](N)CCCNC(=N)N)CSSC[C@H](C(=O)O)NC(=O)[C@@H](C)NC1=O [PSP VII A12, H-RRKKcwwftniac-OH] (H-RRKK[dC][dW][dW][dF][dT][dN][dI][dA][dC]-OH; disulfide 5-13) | 55.2%
15 | CC[C@@H](C)[C@H]1NC(=O)[C@@H](CC(=O)O)NC(=O)[C@@H]([C@H](C)O)NC(=O)[C@@H](Cc2ccccc2)NC(=O)[C@@H](Cc2c[nH]c3ccccc23)NC(=O)[C@@H](Cc2c[nH]c3ccccc23)NC(=O)[C@H](NC(=O)[C@H](CCCCN)NC(=O)[C@H](CCCCN)NC(=O)[C@H](CCCNC(=N)N)NC(=O)[C@@H](N)CCCNC(=N)N)CSSC[C@H](C(=O)O)NC(=O)[C@@H](C)NC1=O [PSP VII A3, H-RRKKcwwftdiac-OH] (H-RRKK[dC][dW][dW][dF][dT][dD][dI][dA][dC]-OH; disulfide 5-13) | 9.5%
16 | CC[C@@H](C)[C@H]1NC(=O)[C@@H](CS)NC(=O)[C@@H]([C@H](C)O)NC(=O)[C@@H](Cc2ccccc2)NC(=O)[C@@H](Cc2c[nH]c3ccccc23)NC(=O)[C@@H](Cc2c[nH]c3ccccc23)NC(=O)[C@H](NC(=O)[C@H](CCCCN)NC(=O)[C@H](CCCCN)NC(=O)[C@H](CCCNC(=N)N)NC(=O)[C@@H](N)CCCNC(=N)N)CSSC[C@H](C(=O)O)NC(=O)[C@@H](C)NC1=O [PSP VII A2, H-RRKKcwwftciac-OH] (H-RRKK[dC][dW][dW][dF][dT][dC][dI][dA][dC]-OH; disulfide 5-13) | 11.9%
17 | CC[C@@H](C)[C@H]1NC(=O)[C@@H](CCCCN)NC(=O)[C@@H]([C@H](C)O)NC(=O)[C@@H](Cc2ccccc2)NC(=O)[C@@H](Cc2c[nH]c3ccccc23)NC(=O)[C@@H](Cc2c[nH]c3ccccc23)NC(=O)[C@H](NC(=O)[C@H](CCCCN)NC(=O)[C@H](CCCCN)NC(=O)[C@H](CCCNC(=N)N)NC(=O)[C@@H](N)CCCNC(=N)N)CSSC[C@H](C(=O)O)NC(=O)[C@@H](C)NC1=O [PSP VII A9, H-RRKKcwwftkiac-OH] (H-RRKK[dC][dW][dW][dF][dT][dK][dI][dA][dC]-OH; disulfide 5-13) | 17.4%

Same assay, conditions: A1/Malaysia/302/1954, 48 h, 500 μM

Row | Structure (SMILES) | % inhibition H1N1
18 | CC[C@@H](C)[C@H]1NC(=O)[C@@H](Cc2ccccc2)NC(=O)[C@@H](CCCNC(=N)N)NC(=O)[C@@H](CO)NC(=O)[C@@H](CC(N)=O)NC(=O)[C@@H]([C@H](C)O)NC(=O)[C@H](NC(=O)[C@@H](CCCCN)NC(=O)[C@@H](CCCCN)NC(=O)[C@@H](CCCNC(=N)N)NC(=O)[C@H](N)CCCNC(=N)N)CSSC[C@H](C(=O)O)NC(=O)[C@@H](CC(N)=O)NC1=O [PSP II A12, H-rrkkctnsrfinc-OH] (H-[dR][dR][dK][dK][dC][dT][dN][dS][dR][dF][dI][dN][dC]-OH; disulfide 5-13) | 53.8%
19 | CSCC[C@H]1NC(=O)[C@@H](Cc2ccccc2)NC(=O)[C@@H](CCCNC(=N)N)NC(=O)[C@@H](CO)NC(=O)[C@@H](CCCCN)NC(=O)[C@@H]([C@H](C)O)NC(=O)[C@H](N)CSSC[C@H](C(=O)O)NC(=O)[C@@H](CC(N)=O)NC1=O [PSP 11, H-ctksrfmnc-OH] (H-[dC][dT][dK][dS][dR][dF][dM][dN][dC]-OH; disulfide 1-9) | 5.8%
20 | CC[C@@H](C)[C@H]1NC(=O)[C@@H](Cc2ccccc2)NC(=O)[C@@H](CCCNC(=N)N)NC(=O)[C@@H](CO)NC(=O)[C@@H](CS)NC(=O)[C@@H]([C@H](C)O)NC(=O)[C@H](NC(=O)[C@@H](CCCCN)NC(=O)[C@@H](CCCCN)NC(=O)[C@@H](CCCNC(=N)N)NC(=O)[C@H](N)CCCNC(=N)N)CSSC[C@H](C(=O)O)NC(=O)[C@@H](CC(N)=O)NC1=O [PSP II A2, H-rrkkctcsrfinc-OH] (H-[dR][dR][dK][dK][dC][dT][dC][dS][dR][dF][dI][dN][dC]-OH; disulfide 5-13) | 1.7%
